The text below walks through data of patent publication US8658646B2, “Pyrrolopyrazine kinase inhibitors” (Hoffmann-LaRoche Inc., priority 2011, dated 2014).

The target in test [1] is T1, JAK3: Recombinant human kinase domain (Homo sapiens, UniProt P52333).
T1 construct: JAK3: Recombinant human kinase domain from Millipore (Cat #14-629) or prepared; purchased Millipore 14-629
As to the kind of experiment: Determination of IC50 of Janus Kinase (JAK) inhibition, radioactive end-point 33P-ATP assay, JAK3. It counts as biochemical. The following applies: ATP 1.5 uM, peptide 50 uM, 20 minutes, read-out: JAK3-INHIB-DR/v1~NO ADDITIVE~Enzyme_Conc = 100.

In test [2] the target is T2, recombinant human SYK360-635 (Homo sapiens, UniProt P43405).
T2 construct: made in house
As to the kind of experiment: Determination of IC50 of Spleen Tyrosine Kinase (SYK) inhibition, 33P ATP filtration assay. As to conditions: SYK aa 360-635 0.5 nM; ATP 20 μM, peptide 5 μM, 0.1% BSA; read-out: SYK_ENZYME_FILTRATION/v1, BSA. It counts as biochemical.

T1 sequence (P52333 822-1111 limits assumed): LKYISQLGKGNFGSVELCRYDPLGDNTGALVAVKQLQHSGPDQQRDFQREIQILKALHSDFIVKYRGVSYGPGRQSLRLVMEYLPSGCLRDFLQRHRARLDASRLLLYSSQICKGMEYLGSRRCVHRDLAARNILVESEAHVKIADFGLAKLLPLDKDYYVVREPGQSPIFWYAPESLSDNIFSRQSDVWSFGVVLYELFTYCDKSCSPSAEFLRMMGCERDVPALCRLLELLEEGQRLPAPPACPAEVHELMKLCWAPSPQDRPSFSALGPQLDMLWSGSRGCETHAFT

For `C[C@@H](NC(=O)c1c[nH]c2ncc(-c3nn(C)c4c(F)c(F)ccc34)nc12)C(=O)N1CC(C#N)C1` [Example I-86, 2-(6,7-Difluoro-1-methyl-1H-indazol-3-yl)-5H-pyrrolo[2,3-b]pyrazine-7-carboxylic acid [(R)-2-(3-cyano-azetidin-1-yl)-1-methyl-2-oxo-ethyl]-amide], the figures for the IC50 in test [1] and in test [2] were 0.000745 µM and 0.109 µM, respectively.

With `CCc1ccc2c(-c3cnc4[nH]cc(C(=O)N[C@H](C)C(=O)N5CC(C#N)C5)c4n3)nn(C)c2c1` [Example I-87], the figures for the IC50 in test [1] and in test [2] were 0.00178 µM and 0.158 µM, respectively.

As for `CC(C)NC(=O)c1c[nH]c2ncc(-c3nn(C)c4cc(F)cc(F)c34)nc12` [Example I-101, 2-(4,6-Difluoro-1-methyl-1H-indazol-3-yl)-5H-pyrrolo[2,3-b]pyrazine-7-carboxylic acid isopropylamide], the IC50 in test [1] came to 0.0108 µM; in test [2], 0.0138 µM.

`CC(C)NC(=O)c1c[nH]c2ncc(-c3nn(C4COC4)c4cc(F)ccc34)nc12` [Example I-102, 2-(6-Fluoro-1-oxetan-3-yl-1H-indazol-3-yl)-5H-pyrrolo[2,3-b]pyrazine-7-carboxylic acid isopropylamide]: the IC50 in test [1] was 0.00163 µM; in test [2], 0.0187 µM.

As to `COC[C@H](C)NC(=O)c1c[nH]c2ncc(-c3nn(C4COC4)c4cc(F)ccc34)nc12` [Example I-103, 2-(6-Fluoro-1-oxetan-3-yl-1H-indazol-3-yl)-5H-pyrrolo[2,3-b]pyrazine-7-carboxylic acid ((S)-2-methoxy-1-methyl-ethyl)-amide], the IC50 in test [1] is 0.00026 µM; in test [2], 0.0438 µM.

Take `CC(C)NC(=O)c1c[nH]c2ncc(-c3nn(C4CNC4)c4cc(F)ccc34)nc12` [Example I-104, 2-(1-Azetidin-3-yl-6-fluoro-1H-indazol-3-yl)-5H-pyrrolo[2,3-b]pyrazine-7-carboxylic acid isopropylamide]: the IC50 in test [1] came out at 0.00568 µM; in test [2], 0.041 µM.

For `Cn1nc(-c2cnc3[nH]cc(C(=O)NC4CCOC4)c3n2)c2ccc(Cl)cc21` (stereo not shown) [Example I-107, 2-(6-Chloro-1-methyl-1H-indazol-3-yl)-5H-pyrrolo[2,3-b]pyrazine-7-carboxylic acid (tetrahydro-furan-3-yl)-amide], the figures for the IC50 in test [1] and in test [2] were 0.0115 µM and 0.0208 µM, respectively.

For the molecule `Cn1nc(-c2cnc3[nH]cc(C(=O)NC4CCCCC4)c3n2)c2ccc(Cl)cc21` [Example I-110, 2-(6-Chloro-1-methyl-1H-indazol-3-yl)-5H-pyrrolo[2,3-b]pyrazine-7-carboxylic acid cyclohexylamide], the figures for the IC50 in test [1] and in test [2] were 0.0073 µM and 0.249 µM, respectively.

Regarding `Cn1nc(-c2cnc3[nH]cc(C(=O)NC4CCCOC4)c3n2)c2ccc(Cl)cc21` (stereo not shown) [Example I-111, 2-(6-Chloro-1-methyl-1H-indazol-3-yl)-5H-pyrrolo[2,3-b]pyrazine-7-carboxylic acid (tetrahydro-pyran-3-yl)-amide], the results for the IC50 in test [1] and in test [2] were 0.00397 µM and 0.0217 µM, respectively.

On to `Cn1nc(-c2cnc3[nH]cc(C(=O)NC4CCOCC4)c3n2)c2ccc(Cl)cc21` [Example I-112, 2-(6-Chloro-1-methyl-1H-indazol-3-yl)-5H-pyrrolo[2,3-b]pyrazine-7-carboxylic acid (tetrahydro-pyran-4-yl)-amide], for which the IC50 in test [1] worked out at 0.0146 µM; in test [2], 0.0333 µM.

As for `Cn1nc(-c2cnc3[nH]cc(C(=O)NC4CCS(=O)(=O)C4)c3n2)c2ccc(Cl)cc21` (stereo not shown) [Example I-113, 2-(6-Chloro-1-methyl-1H-indazol-3-yl)-5H-pyrrolo[2,3-b]pyrazine-7-carboxylic acid (1,1-dioxo-tetrahydro-1λ6-thiophen-3-yl)-amide], the results for the IC50 in test [1] and in test [2] were 0.256 µM and 0.198 µM, respectively.

Consider `Cn1nc(-c2cnc3[nH]cc(C(=O)NCC(C)(C)CO)c3n2)c2ccc(F)cc21` [Example I-114, 2-(6-Fluoro-1-methyl-1H-indazol-3-yl)-5H-pyrrolo[2,3-b]pyrazine-7-carboxylic acid (3-hydroxy-2,2-dimethyl-propyl)-amide], for which the IC50 was determined as 0.0128 µM in test [1] and 0.0121 µM in test [2].

As to `Cn1nc(-c2cnc3[nH]cc(C(=O)NCC(C)(C)C)c3n2)c2ccc(F)cc21` [Example I-115, 2-(6-Fluoro-1-methyl-1H-indazol-3-yl)-5H-pyrrolo[2,3-b]pyrazine-7-carboxylic acid (2,2-dimethyl-propyl)-amide], the values for the IC50 in test [1] and in test [2] were 0.00823 µM and 0.0193 µM, respectively.

Turning to `CC(C)CNC(=O)c1c[nH]c2ncc(-c3nn(C)c4cc(F)ccc34)nc12` [Example I-116, 2-(6-Fluoro-1-methyl-1H-indazol-3-yl)-5H-pyrrolo[2,3-b]pyrazine-7-carboxylic acid isobutyl-amide], the IC50 in test [1] was 0.00944 µM; in test [2], 0.0176 µM.

Consider `C[C@H](CN1CC[C@@H](F)C1)NC(=O)c1c[nH]c2ncc(-c3nn(C)c4cc(Cl)ccc34)nc12` [Example I-121, 2-(6-Chloro-1-methyl-1H-indazol-3-yl)-5H-pyrrolo[2,3-b]pyrazine-7-carboxylic acid [(R)-2-((R)-3-fluoro-pyrrolidin-1-yl)-1-methyl-ethyl]-amide], for which the IC50 was 0.124 µM in test [1] and 0.372 µM in test [2].

In the case of `C[C@H](CN1CC[C@H](F)C1)NC(=O)c1c[nH]c2ncc(-c3nn(C)c4cc(Cl)ccc34)nc12` [Example I-122, 2-(6-Chloro-1-methyl-1H-indazol-3-yl)-5H-pyrrolo[2,3-b]pyrazine-7-carboxylic acid [(R)-2-((S)-3-fluoro-pyrrolidin-1-yl)-1-methyl-ethyl]-amide], the results for the IC50 in test [1] and in test [2] were 0.0824 µM and 0.284 µM, respectively.

As to `C[C@H](CN1CC(F)C1)NC(=O)c1c[nH]c2ncc(-c3nn(C)c4cc(Cl)ccc34)nc12` [Example I-123, 2-(6-Chloro-1-methyl-1H-indazol-3-yl)-5H-pyrrolo[2,3-b]pyrazine-7-carboxylic acid [(R)-2-(3-fluoro-azetidin-1-yl)-1-methyl-ethyl]-amide], the figures for the IC50 in test [1] and in test [2] were 0.0686 µM and 0.144 µM, respectively.

As to `CC(CN1CCC(C#N)C1)NC(=O)c1c[nH]c2ncc(-c3nn(C)c4cc(Cl)ccc34)nc12` (stereo not shown) [Example I-125, 2-(6-Chloro-1-methyl-1H-indazol-3-yl)-5H-pyrrolo[2,3-b]pyrazine-7-carboxylic acid [2-(3-cyano-pyrrolidin-1-yl)-1-methyl-ethyl]-amide], the IC50 was determined as 0.0293 µM in test [1] and 0.0835 µM in test [2].

As for `CC(C)NC(=O)c1c[nH]c2ncc(-c3nn(C)c4cc(Cl)cc(F)c34)nc12` [Example I-127, 2-(6-Chloro-4-fluoro-1-methyl-1H-indazol-3-yl)-5H-pyrrolo[2,3-b]pyrazine-7-carboxylic acid isopropylamide], the IC50 came out at 0.011 µM in test [1] and 0.0226 µM in test [2].

With `CC(C)NC(=O)c1c[nH]c2ncc(-c3nn(CCN(C)C)c4cc(Cl)cc(F)c34)nc12` [Example I-128, 2-[6-Chloro-1-(2-dimethylamino-ethyl)-4-fluoro-1H-indazol-3-yl]-5H-pyrrolo[2,3-b]pyrazine-7-carboxylic acid isopropylamide], the IC50 in test [1] worked out at 0.0133 µM; in test [2], 0.186 µM.
